Article PMC6017357, “In Vitro Inhibitory Effects of Synthetic Cannabinoid EAM-2201 on Cytochrome P450 and UDP-Glucuronosyltransferase Enzyme Activities in Human Liver Microsomes” (Molecules : A Journal of Synthetic Chemistry and Natural …, 2018)

Biological target: T1, CYP2A6 (Homo sapiens, UniProt P11509)
T1 construct: from tissue; host or cells: ultrapooled human liver microsomes
T1 sequence (P11509 1-494): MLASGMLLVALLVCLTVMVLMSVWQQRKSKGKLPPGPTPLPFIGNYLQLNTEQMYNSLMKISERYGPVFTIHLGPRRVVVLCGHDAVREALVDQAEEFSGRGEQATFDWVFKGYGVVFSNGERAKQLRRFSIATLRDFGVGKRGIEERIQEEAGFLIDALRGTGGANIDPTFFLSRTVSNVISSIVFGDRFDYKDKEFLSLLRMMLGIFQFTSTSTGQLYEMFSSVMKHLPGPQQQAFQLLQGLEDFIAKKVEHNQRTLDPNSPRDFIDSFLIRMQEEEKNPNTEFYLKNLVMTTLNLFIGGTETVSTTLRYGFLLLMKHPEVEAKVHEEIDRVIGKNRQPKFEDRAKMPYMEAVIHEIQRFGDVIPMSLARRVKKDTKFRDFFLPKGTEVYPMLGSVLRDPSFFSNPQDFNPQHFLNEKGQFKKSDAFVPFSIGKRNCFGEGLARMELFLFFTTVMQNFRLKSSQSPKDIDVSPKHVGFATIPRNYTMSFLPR
Experiment: CYP2A6-mediated coumarin 7-hydroxylation in pooled human liver microsomes
Type: in vitro ADME
Conditions: up to 50 µM, without 30-min preincubation
Experimental: The inhibitory potential (IC50 values) of EAM-2201 on CYP1A2, CYP2A6, CYP2C8, CYP2C9, CYP2C19, CYP2D6 and CYP3A4 were evaluated using ultrapooled human liver microsomes and a cocktail of seven CYP substrates followed by LC-tandem mass spectrometry (LC-MS/MS) as previously described. […] Aliquots (5 µL) of the diluted supernatants were analyzed using LC-MS/MS. […]
The metabolites formed from CYP substrates were simultaneously quantified using our previously described LC-MS/MS method. […] Quantification was performed by selected reaction monitoring (SRM) of the [M + H]^+ ion and the related product ion for each metabolite: acetaminophen, 152.1 > 110.3; N-desethylamodiaquine, 328.1 > 283.0; 7-hydroxycoumarin, 163.0 > 107.2; 4-hydroxybupropion, 256.1 > 238.0; 4′-hydroxydiclofenac, 312.0 > 231.1; 4′-hydroxy-mephenytoin, 235.1 > 150.1; 1′-hydroxybufuralol, 278.1 > 186.1; 1′-hydroxymidazolam, 341.9 > 324.0; ^13C2,^15N-acetaminophen, 155.1 > 111.2; and d9-1′-hydroxybufuralol, 287.2 > 187.0. […]

Structure (SMILES): CCc1ccc(C(=O)c2cn(CCCCCF)c3ccccc23)c2ccccc12 [EAM-2201, (4-ethyl-1-naphthalenyl)[1-(5-fluoropentyl)-1H-indol-3-yl]-methanone]
- inhibition of CYP2A6-mediated coumarin 7-hydroxylation: negligibly inhibited
